Experimental data from article PMC8426359, “Use of a small molecule integrin activator as a systemically administered vaccine adjuvant in controlling Chagas disease” (NPJ Vaccines, 2021).

Target: T1, integrin α4β1 (very late activation antigen-4, VLA-4) (Homo sapiens, UniProt P05556+P13612)
T1 construct: gene ITGA4; endogenous integrin on Jurkat cells; with integrin β1 (ITGB1)
Assay: static adhesion of Jurkat cells to VCAM-1; blocked by anti-α[…] or anti-β[…] mAb
Assay type: cell-based

T1 sequence (P13612 34-1032): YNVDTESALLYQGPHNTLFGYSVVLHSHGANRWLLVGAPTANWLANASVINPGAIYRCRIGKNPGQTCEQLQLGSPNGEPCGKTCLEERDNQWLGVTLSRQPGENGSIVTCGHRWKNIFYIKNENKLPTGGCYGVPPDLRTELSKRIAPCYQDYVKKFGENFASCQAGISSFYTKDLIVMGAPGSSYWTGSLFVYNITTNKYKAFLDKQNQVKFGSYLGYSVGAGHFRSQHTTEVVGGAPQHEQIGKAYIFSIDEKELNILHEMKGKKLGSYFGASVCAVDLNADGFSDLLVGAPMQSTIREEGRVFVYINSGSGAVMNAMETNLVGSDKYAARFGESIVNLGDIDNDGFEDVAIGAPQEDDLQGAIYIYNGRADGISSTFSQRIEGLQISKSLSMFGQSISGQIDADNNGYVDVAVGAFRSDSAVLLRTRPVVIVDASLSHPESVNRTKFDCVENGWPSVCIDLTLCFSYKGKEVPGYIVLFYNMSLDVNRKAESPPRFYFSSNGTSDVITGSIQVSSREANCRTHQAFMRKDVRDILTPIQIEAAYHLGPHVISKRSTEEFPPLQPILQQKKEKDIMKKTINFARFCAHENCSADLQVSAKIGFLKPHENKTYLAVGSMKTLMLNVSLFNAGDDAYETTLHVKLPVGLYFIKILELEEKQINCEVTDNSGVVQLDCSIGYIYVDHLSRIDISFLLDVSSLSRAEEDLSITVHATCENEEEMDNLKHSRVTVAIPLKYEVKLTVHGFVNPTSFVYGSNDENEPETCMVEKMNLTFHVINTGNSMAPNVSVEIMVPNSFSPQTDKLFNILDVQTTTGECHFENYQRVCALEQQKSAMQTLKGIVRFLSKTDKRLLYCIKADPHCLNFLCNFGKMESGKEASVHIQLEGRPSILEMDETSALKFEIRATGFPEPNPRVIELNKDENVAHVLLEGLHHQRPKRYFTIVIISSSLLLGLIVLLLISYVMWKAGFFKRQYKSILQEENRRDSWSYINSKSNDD
T1 sequence (P05556 21-798): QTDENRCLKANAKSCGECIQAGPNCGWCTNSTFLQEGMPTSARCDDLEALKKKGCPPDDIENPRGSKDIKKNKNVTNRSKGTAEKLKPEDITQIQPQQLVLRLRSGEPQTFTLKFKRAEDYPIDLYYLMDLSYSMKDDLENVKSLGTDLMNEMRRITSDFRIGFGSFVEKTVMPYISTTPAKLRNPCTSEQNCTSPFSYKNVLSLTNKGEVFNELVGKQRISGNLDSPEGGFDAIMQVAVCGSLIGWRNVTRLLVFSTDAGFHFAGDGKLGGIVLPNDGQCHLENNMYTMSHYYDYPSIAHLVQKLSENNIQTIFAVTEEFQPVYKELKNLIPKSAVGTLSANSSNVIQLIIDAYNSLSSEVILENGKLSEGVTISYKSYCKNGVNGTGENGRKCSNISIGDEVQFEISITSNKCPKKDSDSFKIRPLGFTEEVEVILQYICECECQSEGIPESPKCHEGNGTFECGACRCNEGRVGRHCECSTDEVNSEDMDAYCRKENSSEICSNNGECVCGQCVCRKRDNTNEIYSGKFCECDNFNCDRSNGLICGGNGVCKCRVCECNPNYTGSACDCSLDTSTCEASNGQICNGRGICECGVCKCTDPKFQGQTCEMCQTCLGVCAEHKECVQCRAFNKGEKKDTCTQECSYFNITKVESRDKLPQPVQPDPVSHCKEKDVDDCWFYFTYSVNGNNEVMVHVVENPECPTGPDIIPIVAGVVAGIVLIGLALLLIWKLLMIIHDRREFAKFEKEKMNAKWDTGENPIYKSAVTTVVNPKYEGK

EC50: 2 µM
Structure (SMILES): O=C(OCCOCCOCCOC(=O)N(Cc1cccs1)Cc1cccs1)N(Cc1cccs1)Cc1cccs1 [7HP349]
